Usually Log P stands for a log measure of how a compound divides between an organic and an aqueous phase.

≈ marks a conversion by molar mass, not a printed value.

For data set [1] the following is noted: cited from earlier work; for log P Exp.: experimentally determined, database entry; for Log P: known values used for standard curve.
For data set [2] the following is noted: cited from earlier work; for Sol (Exp): experimental water solubility; for solubility: aqueous, at 25° C.
Data set [3] in a line: Experimental water solubility of alcohol compounds at 25° C.

Consider `CC(C)=CCO` [3-Methyl-2-buten-1-ol], for which the “log P Exp.” value in data set [1] is 1.244.

For the compound `CCC(C)C(C)(C)O` (centres unmarked) [2,3-Dimethyl-2-pentanol], the “Sol (Exp)” value in data set [2] (25° C.) is on record as 15.7 g/L.

Consider `CCC(O)CC` [3-pentanol], for which, in data set [1], the “log P Exp.” value is 1.21 and the “Log P” value is listed as 1.21. Further, in data set [2] (25° C.), the “Sol (Exp)” value is recorded as 51.5 g/L.

Turning to `CCC(C)(C)CO` [2,2-Dimethyl-1-butanol], the “Sol (Exp)” value in data set [2] (25° C.) was 7.6 g/L.

Turning to `Cc1ccccc1O` [2-methyl phenol], the “Sol (Exp)” value in data set [2] (25° C.) was 25.9 g/L.

Regarding `CCC(CC)CO` [2-Ethyl-1-butanol], the “Sol (Exp)” value in data set [2] (25° C.) is recorded as 4 g/L.

For `CC(C)CCO` [3-methyl-1-butanol], the “Sol (Exp)” value in data set [2] (25° C.) is on record as 26.7 g/L.

Turning to `CC=CC=CCO` [2,4-Hexadien-1-ol], the “log P Exp.” value in data set [1] is 1.334.

For the compound `CCCC(O)CC` (centres unmarked) [3-hexanol], in data set [1], the “log P Exp.” value was 1.65 and the log partition coefficient (Log P) is 1.65. For the same compound, in data set [2] (25° C.), the “Sol (Exp)” value was 16.1 g/L. The “Solubility (at 25° C.)” value in data set [2] (water, 25° C., known values used for standard curve) is 16.1 mg/mL (≈ 158 mM).

With `CC(C)CC(C)(C)O` [2,4-Dimethyl-2-pentanol], the “Sol (Exp)” value in data set [2] (25° C.) is 13.6 g/L.

As to `CCCCC(C)O` (centres unmarked) [2-hexanol], in data set [1], the “log P Exp.” value is 1.76 and the “Log P” value was 1.76. In addition, the “Sol (Exp)” value in data set [2] (25° C.) is reported as 13.7 g/L.

On to `CCCC(C)O` (centres unmarked) [2-pentanol], for which the lipophilicity (Log P) in data set [1] is given as 1.19. In addition, in data set [2] (25° C.), the “Sol (Exp)” value is recorded as 44.6 g/L.

As to `CCCCCO` [n-pentanol], in data set [1], the “log P Exp.” value was 1.51 and the log partition coefficient (Log P) is 1.51. Moreover, the “solubility converted to percent by weight of an aqueous composition” value in data set [3] came out at 2.2 % by weight. The solubility in data set [2] was 22 grams per liter. The “Sol (Exp)” value in data set [2] (25° C.) is on record as 22 g/L.

Consider `CC(C)CCCO` [4-Methyl-1-pentanol], for which the “Sol (Exp)” value in data set [2] (25° C.) is 7.6 g/L.

Consider `CC(C)C(O)C(C)C` [2,4-Dimethyl-3-pentanol], for which the “Sol (Exp)” value in data set [2] (25° C.) is reported as 7 g/L.

In the case of `CC(C)C(C)(C)O` [2,3-Dimethyl-2-butanol], the “Sol (Exp)” value in data set [2] (25° C.) is 43.5 g/L.

`CCCCCCCCO` [n-octanol]: the solubility in data set [2] is listed as 0.5 grams per liter.

Source of the values: US12714097B2, “Compositions and systems for disinfection” (Markesbery Blue Pearl LLC, priority 2017, dated 2026).
